Article PMC5078989, “Targeted inhibition of the COP9 signalosome for treatment of cancer” (Nature Communications, 2016)

Test system: panel of cancer cell lines
Experiment: Cell viability (CellTiter-Glo) dose-response across cancer cell line panel;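 further: after 72 h compound incubation with CellTiter-Glo ATP readout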
Assay type: cell-based, human
Conditions: Homo sapiens
Excerpt: Next, we explored the effect of CSN5 inhibition on the viability of cancer cells. To obtain a comprehensive picture, we generated dose–response curves with a CSN5 inhibitor across more than 500 cancer cell lines in a previously described standardized setting[47] (Supplementary Data 1).
A standardized CellTiter-Glo Assay (Promega #G7570) based on the quantification of ATP was applied according to the manufacturer's protocol to measure the amount of viable cells in culture. In brief, cells were seeded into 384-well plates at optimal density for each cell line. After 4 h, compounds were added at different concentrations in growth medium and incubated for another 72 h in a humidifying chamber at 37 °C and 5% CO2. […] EC50 values were calculated from the plot of percentage of inhibition versus inhibitor concentration using the nonlinear regression analysis software Origin 7.5SR6 (OriginLab Corp.).

EC50 (HEC-50B): 0.2 µM
EC50 (HEC-108): 3.13 µM
EC50 (HEC-151): 1.28 µM
EC50 (HEC-251, HEC-251): 0.513 µM
EC50 (HEC-265): 0.807 µM
EC50 (HEL): 0.404 µM
EC50 (HEL 92.1.7, HEL 92.1.7): 0.491 µM
EC50 (HEY A8, Hey-A8): 1.99 µM
EC50 (HL-60, HL-60): 0.871 µM
EC50 (HLC-1): 3.33 µM
EC50 (HLE): 1.36 µM
EC50 (HLF): 0.697 µM
EC50 (HMC-1-8): 1.11 µM
EC50 (HPAC): 1.99 µM
EC50 (HPBALL, HPB-ALL): 1.02 µM
EC50 (HRT-18, HRT-18): 1.03 µM
EC50 (HSC-2, HSC-2): 0.892 µM
EC50 (HSC-3, HSC-3): 0.637 µM
EC50 (HSC-4, HSC-4): 1.05 µM
EC50 (HT-29, HT-29): 2.39 µM
EC50 (HT-1080, HT-1080): 0.407 µM
EC50 (Hep3B): 1.09 µM
EC50 (Hep 3B2.1-7): 1.8 µM
EC50 (Hs 294T): 1.95 µM
EC50 (Hs 695T): 0.7 µM
EC50 (Hs766T, Hs 766T): 10.8 µM
EC50 (Hs 852.T): 2.2 µM
EC50 (Hs 936.T): 1.54 µM
EC50 (Hs 944.T): 0.778 µM
EC50 (HuG1-N): 14 µM
EC50 (HuP-T3, HUP-T3): 0.349 µM
EC50 (Huh-7, HuH-7): 0.309 µM
EC50 (IGR-37, IGR-37): 4.04 µM
EC50 (IGR-39, IGR-39): 1.72 µM
EC50 (IGROV-1, IGROV1): 7.24 µM
EC50 (IPC-298, IPC-298): 1.23 µM
EC50 (IST-MES2): 0.609 µM
EC50 (Ishikawa): 1.55 µM
EC50 (J82, J82): 4.93 µM
EC50 (JHH7, JHH-7): 2.44 µM
EC50 (JHH-4, JHH-4): 0.388 µM
EC50 (JHOS-2): > 30 µM
EC50 (JHUEM-2): 0.912 µM
EC50 (JHUEM-3): > 30 µM
EC50 (JIMT-1, JIMT-1): 22.6 µM
EC50 (JL-1): 0.718 µM
EC50 (JU77): 0.857 µM
EC50 (JVM-2, JVM-2): 0.553 µM
EC50 (K029AX): 3.06 µM
EC50 (KARPAS-422, KARPAS-422): 1.75 µM
EC50 (KATO III): 9.81 µM
EC50 (KBM-7, KBM-7): 0.229 µM
EC50 (KCI-MOH1): 0.797 µM
EC50 (KE-97, KE-97): 0.547 µM
EC50 (KLE): 1.26 µM
EC50 (KM12, KM12): 3.47 µM
EC50 (KMM-1, KMM-1): 0.685 µM
EC50 (KMRC-1, KMRC-1): 1.89 µM
EC50 (KMRC-20): 0.788 µM
EC50 (KMS-11, KMS-11): 0.215 µM
EC50 (KNS-60): 6.14 µM
EC50 (KNS-62, KNS-62): 8.05 µM
EC50 (KO52): 0.861 µM
EC50 (KP-1N): 1.11 µM
EC50 (KP-1NL): > 30 µM
EC50 (KP-2): 0.942 µM
EC50 (KP-3): 1.89 µM
EC50 (KP-4, KP4): 1.21 µM
EC50 (KS-1): 9.04 µM
EC50 (KU-19-19, KU-19-19): 1.97 µM
EC50 (KURAMOCHI): 0.392 µM
EC50 (KYSE-30, KYSE-30): 1.7 µM
EC50 (KYSE-70, KYSE-70): 6.04 µM
EC50 (KYSE-150, KYSE-150): 13.4 µM
EC50 (KYSE-180, KYSE-180): 2.15 µM
EC50 (KYSE-410, KYSE-410): 11 µM
EC50 (Kasumi-3, Kasumi3): 0.39 µM
EC50 (Kasumi-6): 4.46 µM
EC50 (L3.3): 1.39 µM
EC50 (L-363, L-363): 0.251 µM
EC50 (L-428, L-428): 0.59 µM
EC50 (LC-1/sq-SF): 24 µM
EC50 (LC-1F): 6.99 µM
EC50 (LC-2-ad, LC2/ad): 3.57 µM
EC50 (LCLC-103H): 21.5 µM
EC50 (LIM1899): 0.884 µM
EC50 (LIM2099): 0.391 µM
EC50 (LIM2405): 2.38 µM
EC50 (LIM2550): 1.04 µM
EC50 (LMSU): 0.247 µM
EC50 (LN-18, LN-18): 0.708 µM
EC50 (LN-229, LN-229): 2.6 µM
EC50 (LO68): 3.37 µM
EC50 (LOU-NH91, LOU-NH91): 1.35 µM
EC50 (LOX IMVI): 0.952 µM
EC50 (LP-1, LP-1): 1.09 µM
EC50 (LS180, LS 180): 0.448 µM
EC50 (LUDLU-1, LUDLU-1): 3.41 µM
EC50 (Li-7, Li-7): 0.766 µM
EC50 (Lu-65, LU65): 0.558 µM
EC50 (Lu-99, LU99): 0.25 µM
EC50 (M-07e): 7.18 µM
EC50 (MCAS): 0.692 µM
EC50 (MCC13): 0.846 µM
EC50 (MCC14/2): 0.282 µM
EC50 (MCC26): 1.44 µM
EC50 (MDA-MB-134-VI): 0.694 µM
EC50 (MDA-MB-157, MDA-MB-157): 2.49 µM
EC50 (MDA-MB-175-VII): 3.51 µM
EC50 (MDA-MB-231, MDA-MB-231): 1.58 µM
EC50 (MDA-MB-435S): 4.47 µM
EC50 (MDA-MB-436, MDA-MB-436): 0.387 µM
EC50 (MDA-MB-453, MDA-MB-453): 7.12 µM
EC50 (MDA-MB-468, MDA-MB-468): 5.94 µM
EC50 (MDST8, MDST8): 1.39 µM
EC50 (ME-180, ME180): 0.63 µM
EC50 (MEC1, MEC-1): 0.517 µM
EC50 (MEL-HO): 10.5 µM
EC50 (MEL-JUSO): 11.2 µM
EC50 (MES-SA): 0.889 µM
EC50 (MFE-280, MFE-280): 5.45 µM
EC50 (MFE-296, MFE-296): 0.518 µM
EC50 (MFE-319): 11.1 µM
EC50 (MFM-223, MFM223): 0.769 µM
EC50 (MG-63, MG-63): 0.478 µM
EC50 (MIA PaCa-2, MIA PaCa-2): 1.81 µM
EC50 (MINO): 0.204 µM
EC50 (MKN-1, MKN1): 2.03 µM
EC50 (MKN-45, MKN-45): 1.71 µM
EC50 (ML-2, ML-2): 0.687 µM
EC50 (MM127): 0.508 µM
EC50 (MM138): 1.52 µM
EC50 (MM170): 11.4 µM
EC50 (MM370): 6.22 µM
EC50 (MM383): 1.19 µM
EC50 (MM386): 2.07 µM
EC50 (MM415): 1.37 µM
EC50 (MM426): 3.04 µM
EC50 (MM466): 2.25 µM
EC50 (MM473, MM473): 2.22 µM
EC50 (MM485): 0.521 µM
EC50 (MM537): 2.63 µM
EC50 (MM576): 7.15 µM
EC50 (MM603): 0.286 µM
SMILES: COCc1ccccc1NCc1ccc([C@H]2[C@@H](O)CCCc3cncn32)c(-c2ccccc2Cl)c1 [CSN5i-2, (5S,6S)-5-(2′-chloro-5-(((2-(methoxymethyl)phenyl)amino)methyl)-[1,1′-biphenyl]-2-yl)-6,7,8,9-tetrahydro-5H-imidazo[1,5-a]azepin-6-ol]
